Results as given in US20190117667A1, “ANTICANCER ACTIVITY OF PLATINUM(II) TETRASELENONE COMPLEXES” (King Fahd University of Petroleum and Minerals, priority 2017, published 2019).
Several values for one entry are separate records, joined by “and”; a condition that tells them apart may be missing. Identical values can stand only once. Like-named read-outs stand apart in the source and are kept apart here.

What was measured:
testicular cancer = details: cited from earlier work
[1] = Solubility in deuterated solvents for 195Pt NMR; format: physicochemical; details: for 195Pt NMR spectra
Procedure: The FTIR spectra of the ligands and their platinum(II) complexes were carried out on a Nicolet 6700 FTIR spectrophotometer using KBr pellets in the range between 4000 to 400 cm^−1. The ^1H, ^13C and ^77Se NMR spectra were recorded in DMSO-d6 on a Jeol JNM 500 NMR spectrophotometer operating at 500.01, 125.65 and 95.35 MHz respectively. The spectral conditions were; 32 K data points, 0.963 s acquisition time, 3.2 s pulse delay and a 5.75 μs pulse width for ^1H NMR, and 32 K data points, 0.963 s acquisition time, 2.0 s pulse delay and a 5.12 μs pulse width for ^13C NMR. The chemical shifts were measured relative to TMS. The ^77Se NMR chemical shifts were recorded relative to external reference (NaHSeO3 in D2O) at 1308.00 ppm, using 2.0 s pulse delay and using 0.311 s acquisition time. The ^195Pt NMR spectra were recorded in methanol-d4 using a Varian 400 MHz NMR spectrometer at 298 K. The spectra were referenced with respect to potassium tetrachloridoplatinate(II) in D2O at 0 ppm.
The ^195Pt NMR spectroscopy was also employed for thorough characterization of the prepared complexes, as the number of signals and their chemical shift in the ^195Pt NMR spectra provide efficient evidence about the purity and, also generally, the coordination environment of the metal. […]

[2] = test system: prostate carcinoma (22Rv1) cells; assay: MTT in vitro cytotoxicity assay, 22Rv1; format: cell-based, human; details: for IC50: triplicate, tested up to 50 μM, read-out: In vitro cytotoxicity IC50 ± S.D., 22RvI
Procedure: (§1) All the human cancer cell lines were purchased from European Collection of Cell Cultures (ECACC). The cells were cultivated according to the manufacturer's manuals and maintained in an atmosphere containing 5% CO2 in a humidified incubator at 37° C. The experimental procedure was performed according to the literature. See R. […], PLoS One, 2014, 9(9), e107373, incorporated herein by reference in its entirety. All the experiments were conducted in triplicate. The results were expressed as ICso values along with standard deviations (SD). The significance of the differences between the compared groups of results was assessed by the ANOVA analysis, with p<0.05 considered to be significant (QC Expert 3.2, Statistical software, TriloByte Ltd.). See QC Expert 3.2, Statistical software, TriloByte Ltd., Pardubice, Czech Republic. 2009, incorporated herein by reference in its entirety.

[3] = test system: human breast adenocarcinoma (MCF7) cells; assay: MTT in vitro cytotoxicity assay, MCF7; format: cell-based; details: triplicate, tested up to 50 μM, read-out: In vitro cytotoxicity IC50 ± S.D., MCF7
Procedure: as §1

[4] = test system: human ovarian carcinoma A2780 cells; assay: MTT in vitro cytotoxicity assay, A2780; format: cell-based; details: triplicate, tested up to 50 μM
Procedure: as §1

[5] = test system: ovarian carcinoma resistant to cisplatin (A2780R) cells; assay: MTT in vitro cytotoxicity assay, A2780R; format: cell-based, human; details: triplicate, tested up to 50 μM, read-out: In vitro cytotoxicity IC50 ± S.D., A2780R
Procedure: as §1

[6] = ESI-MS stability and interaction with L-cysteine and reduced glutathione; format: physicochemical; details: methanol:water (1:1, v/v), complex 10 μM, Cys 290 μM, GSH 6 μM, immediately vs 24 h after preparation
Procedure: In order to describe the behavior of complexes in different media, i.e. to better understand their stability in protogenic media and interactions of the complexes with sulfur-containing biomolecules under physiological conditions, mass spectrometric experiments involving the interacting systems, containing the mixture of L-cysteine and reduced L-glutathione, were performed.
The electrospray-ionization mass spectrometry (ESI-MS) was used to perform the interaction experiments of the selected two cytotoxic platinum(II) complexes 4 and 5 using the ThermoLCQ Fleet Ion Trap mass spectrometer, in positive ionization mode. […] The measured solutions were injected into the mass spectrometer using the HPLC autosampler (Ultimate 3000, Dionex) in 10 μL spikes. The mass spectra were recorded in the range of 50-1400 m/z. […]
The stability in methanol:water (1:1, v/v) solutions as compared to the pure methanol and interactions of complexes in methanol:water (1:1, v/v)solutions containing the complexes 4 and 5 at the final concentrations of 10 μM and the physiological levels of L-cysteine (Cys) and L-glutathione (GSH), at 290, and 6 μM concentration, respectively, were measured by ESI+MS immediately after preparation and 24 h after preparation. […] The spectra measured immediately after preparation contained mostly the ionic species similar to those identified in reference methanol solutions. […]

[7] = read-out: In vitro cytotoxicity IC50 ± S.D., A2780

N.N.[Cl][Pt][Cl] [Cisplatin]
Cure rate in testicular cancer (testicular cancer; treatment of testicular cancer): over 90% | Cure rate in testicular cancer, tumors discovered early (testicular cancer; when tumors are discovered early): ~100%

NC(N)=[Se].NC(N)=[Se].NC(N)=[Se].NC(N)=[Se].[Cl-].[Cl-].[Pt+2] [Complex 1]
Solubility in methanol-d4 and deuterated N,N-dimethylformamide [1]: insufficient solubility

[Cl-].[Cl-].[Pt+2].[Se]=C1NCCN1.[Se]=C1NCCN1.[Se]=C1NCCN1.[Se]=C1NCCN1 [Complex 2]
IC50 [2]: > 50 µM | IC50 [3]: > 50 µM | IC50 [4, 7]: > 50 µM | IC50 [5]: > 50 µM | Solubility in methanol-d4 and deuterated N,N-dimethylformamide [1]: insufficient solubility

CCN1CCNC1=[Se].CCN1CCNC1=[Se].CCN1CCNC1=[Se].CCN1CCNC1=[Se].[Cl-].[Cl-].[Pt+2] [Complex 3, [Pt(N-ethylimidazolidine-2-selenone)4]Cl2]
IC50 [2]: > 50 µM | IC50 [3]: > 50 µM | IC50 [4, 7]: > 50 µM | IC50 [5]: > 50 µM

CCCN1CCNC1=[Se].CCCN1CCNC1=[Se].CCCN1CCNC1=[Se].CCCN1CCNC1=[Se].[Cl-].[Cl-].[Pt+2] [Complex 4]
Cytotoxicity against 22Rv1 cells (in words) [2]: some cytotoxicity | IC50 [2]: 46.2 ± 3.8 µM | IC50 [3]: > 50 µM | IC50 [4, 7]: 44.7 µM and 30.8 µM | IC50 [5]: > 50 µM | Ligand exchange reactions with L-cysteine and reduced glutathione [6]: relatively rapid

CC(C)N1CCNC1=[Se].CC(C)N1CCNC1=[Se].CC(C)N1CCNC1=[Se].CC(C)N1CCNC1=[Se].[Cl-].[Cl-].[Pt+2] [Complex 5, [Pt(N-isopropylimidazolidine-2-selenone)4]Cl2]
IC50 [2]: > 50 µM | IC50 [3]: > 50 µM | IC50 ([4]; listed as 5, read-out: In vitro cytotoxicity IC50 ± S.D., A2780): 30.8 µM | IC50 [4, 7]: 44.7 µM | IC50 [5]: > 50 µM | Ligand exchange reactions with L-cysteine and reduced glutathione [6]: relatively rapid

[Cl-].[Cl-].[Pt+2].[Se]=C1NCCCN1.[Se]=C1NCCCN1.[Se]=C1NCCCN1.[Se]=C1NCCCN1 [Complex 6]
IC50 [2]: > 50 µM | IC50 [3]: > 50 µM | IC50 [4, 7]: > 50 µM | IC50 [5]: > 50 µM

[Cl-].[Cl-].[Pt+2].[Se]=C1NCCCCN1.[Se]=C1NCCCCN1.[Se]=C1NCCCCN1.[Se]=C1NCCCCN1 [Complex 7]
IC50 [2]: > 50 µM | IC50 [3]: > 50 µM | IC50 [4, 7]: > 50 µM | IC50 [5]: > 50 µM
